The results in this text go back to patent US9580431B2, “Inhibitors of human immunodeficiency virus replication” (priority 2013, dated 2017).

One assay concerns recombinant NL-Rluc virus. The assay can be described thus: microbe, parasite or virus in culture. Type of assay: cell-based, HIV. Particulars: Human immunodeficiency virus 1, MT2, 120 h, NL-RLuc virus infecting MT-2 cells, 5 days of incubation, luciferase readout; at least 2 experiments; serum condition not given; read-out: EC50.
For the compound `Cc1nc2cc(-c3cnn(Cc4ccccc4)c3)nn2c(N2CCC(C)(C)CC2)c1[C@H](OC(C)(C)C)C(=O)O` [Example 39, (S)-2-(2-(1-Benzyl-1H-pyrazol-4-yl)-7-(4,4-dimethylpiperidin-1-yl)-5-methylpyrazolo[1,5-a]pyrimidin-6-yl)-2-(tert-butoxy)acetic acid], the EC50 – broadly, the concentration giving half of the maximal effect – was 7 nM.

Take `CCC1(C)CCN(c2c([C@H](OC(C)(C)C)C(=O)O)c(C)nc3cc(-c4ncc(Cc5ccc(F)cc5)s4)nn23)CC1` [Example 17, (S)-2-(tert-Butoxy)-2-(7-(4-ethyl-4-methylpiperidin-1-yl)-2-(5-(4-fluorobenzyl)thiazol-2-yl)-5-methylpyrazolo[1,5-a]pyrimidin-6-yl)acetic acid]: the EC50 amounted to 13 nM.

Regarding `Cc1nc2cc(-c3ncc(C(C)c4ccc(F)cc4)s3)nn2c(N2CCC(C)(C)CC2)c1[C@H](OC(C)(C)C)C(=O)O` (stereo partly drawn) [Example 14, (2S)-2-(tert-Butoxy)-2-(7-(4,4-dimethylpiperidin-1-yl)-2-(5-(1-(4-fluorophenyl)ethyl)thiazol-2-yl)-5-methylpyrazolo[1,5-a]pyrimidin-6-yl)acetic acid], the EC50 worked out at 27 nM.

For the compound `Cc1nc2cc(-c3ncc(-c4cccc(F)c4)s3)nn2c(-c2cc(F)c3c(c2C)CCCO3)c1[C@H](OC(C)(C)C)C(=O)O` [Example 9, (2S)-2-(tert-Butoxy)-2-(7-(8-fluoro-5-methylchroman-6-yl)-2-(5-(3-fluorophenyl)thiazol-2-yl)-5-methylpyrazolo[1,5-a]pyrimidin-6-yl)acetic acid], the EC50 turned out to be 28 nM.

In the case of `Cc1nc2cc(-c3nc4cc(Cl)ccc4n3C)nn2c(-c2cc(F)c3c(c2C)CCCO3)c1[C@H](OC(C)(C)C)C(=O)O` [Example 2, (2S)-2-(tert-Butoxy)-2-(2-(5-chloro-1-methyl-1H-benzo[d]imidazol-2-yl)-7-(8-fluoro-5-methylchroman-6-yl)-5-methylpyrazolo[1,5-a]pyrimidin-6-yl)acetic acid], the EC50 was 50 nM.

For `C=CCOc1ccccc1Cc1cnn(-c2cc3nc(C)c([C@H](OC(C)(C)C)C(=O)O)c(N4CCC(C)(OCC=C)CC4)n3n2)c1` [Example 37, (S)-2-(7-(4-(Allyloxy)-4-methylpiperidin-1-yl)-2-(4-(2-(allyloxy)benzyl)-1H -pyrazol-1-yl)-5-methylpyrazolo[1,5-a]pyrimidin-6-yl)-2-(tert-butoxy)acetic acid], the EC50 turned out to be 11 nM.

As to `Cc1nc2cc(-c3ncc(Cc4ccc(F)cc4)s3)nn2c(C2CCC(C)(C)CC2)c1[C@H](OC(C)(C)C)C(=O)O` [Example 11, (S)-2-(tert-Butoxy)-2-(7-(4,4-dimethylcyclohexyl)-2-(5-(4-fluorobenzyl)thiazol-2-yl)-5-methylpyrazolo[1,5-a]pyrimidin-6-yl)acetic acid], the EC50 turned out to be 82 nM.

As to `Cc1nc2cc(-c3ncc(Cc4ccc(F)cc4)o3)nn2c(C2=CCC(C)(C)CC2)c1[C@H](OC(C)(C)C)C(=O)O` [Example 12, (S)-2-(tert-Butoxy)-2-(7-(4,4-dimethylcyclohex-1-en-1-yl)-2-(5-(4-fluorobenzyl)oxazol-2-yl)-5-methylpyrazolo[1,5-a]pyrimidin-6-yl)acetic acid], the half-maximal effective concentration (EC50) was found to be 13 nM.

As for `C=CC1(C)CCN(c2c([C@H](OC(C)(C)C)C(=O)O)c(C)nc3cc(-c4ncc(Cc5ccc(F)cc5)s4)nn23)CC1` [Example 23, (S)-2-(tert-Butoxy)-2-(2-(5-(4-fluorobenzyl)thiazol-2-yl)-5-methyl-7-(4-methyl-4-vinylpiperidin-1-yl)pyrazolo[1,5-a]pyrimidin-6-yl)acetic acid], the EC50 turned out to be 12 nM.

Turning to `Cc1nc2cc(-c3ncc(Cc4ccc(F)cc4)s3)nn2c(N2CCC(C)(C3CC3)CC2)c1[C@H](OC(C)(C)C)C(=O)O` [Example 24, (S)-2-(tert-Butoxy)-2-(7-(4-cyclopropyl-4-methylpiperidin-1-yl)-2-(5-(4-fluorobenzyl)thiazol-2-yl)-5-methylpyrazolo[1,5-a]pyrimidin-6-yl)acetic acid], the EC50 came out at 26 nM.

Take `Cc1nc2cc(-c3nc4cc(-c5ccccc5)ccc4[nH]3)nn2c(-c2cc(F)c3c(c2C)CCCO3)c1[C@H](OC(C)(C)C)C(=O)O` [Example 4, (2S)-2-(tert-Butoxy)-2-(7-(8-fluoro-5-methylchroman-6-yl)-5-methyl-2-(5-phenyl-1H-benzo[d]imidazol-2-yl)pyrazolo[1,5-a]pyrimidin-6-yl)acetic acid]: the EC50 came to 133 nM.

Consider `Cc1nc2cc(-c3ncc(Cc4ccc(F)cc4)s3)nn2c(N2CCC(C)(C)CC2)c1[C@H](OC(C)(C)C)C(=O)O` [Example 13, (S)-2-(tert-Butoxy)-2-(7-(4,4-dimethylpiperidin-1-yl)-2-(5-(4-fluorobenzyl)thiazol-2-yl)-5-methylpyrazolo[1,5-a]pyrimidin-6-yl)acetic acid], for which the EC50 was found to be 14 nM.

For the compound `Cc1nc2cc(-c3ncc(Cc4ccc(F)cc4)s3)nn2c(N2CC=C(c3ccccc3)CC2)c1[C@H](OC(C)(C)C)C(=O)O` [Example 20, (S)-2-(tert-Butoxy)-2-(2-(5-(4-fluorobenzyl)thiazol-2-yl)-5-methyl-7-(4-phenyl-5,6-dihydropyridin-1(2H)-yl)pyrazolo[1,5-a]pyrimidin-6-yl)acetic acid], the EC50 worked out at 877 nM.

The assay is the same for the next values; noted with them: NL-RLuc virus infecting MT-2 cells, 5 days of incubation, luciferase readout; at least 2 experiments; serum condition not given; read-out: EC50.
For `Cc1nc2cc(N3CC(Cc4ccccc4)OC3=O)nn2c(N2CCC(C)(C)CC2)c1[C@H](OC(C)(C)C)C(=O)O` (stereo partly drawn) [Example 30, (2S)-2-(2-(5-Benzyl-2-oxooxazolidin-3-yl)-7-(4,4-dimethylpiperidin-1-yl)-5-methylpyrazolo[1,5-a]pyrimidin-6-yl)-2-(tert-butoxy)acetic acid], the EC50 was determined as 16 nM.

With `Cc1nc2cc(N3C(=O)OCC3Cc3ccccc3)nn2c(N2CCC(C)(C)CC2)c1[C@H](OC(C)(C)C)C(=O)O` (stereo partly drawn) [Example 28, (2S)-2-(2-(4-Benzyl-2-oxooxazolidin-3-yl)-7-(4,4-dimethylpiperidin-1-yl)-5-methylpyrazolo[1,5-a]pyrimidin-6-yl)-2-(tert-butoxy)acetic acid], the EC50 was 152 nM.

Take `Cc1nc2cc(N3CCC(Oc4ccccc4)C3=O)nn2c(N2CCC(C)(C)CC2)c1[C@H](OC(C)(C)C)C(=O)O` (stereo partly drawn) [Example 31, (2S)-2-(tert-Butoxy)-2-(7-(4,4-dimethylpiperidin-1 yl)-5-methyl-2-(2-oxo-3-phenoxypyrrolidin-1-yl)pyrazolo[1,5-a]pyrimidin-6-yl)acetic acid]: the EC50 turned out to be 813 nM.
